Experimental data from the NIST ThermoML archive (doi:10.1016/j.jct.2015.06.036).

Experiments:
[1] = refractive index (Na D-line) (dimensionless); settings: 101 kPa, Liquid, Standard Abbe refractometry
[2] = 101 kPa, Liquid; for viscosity: Falling or rolling sphere viscometry; for speed of sound: Sing-around technique in a fixed-path interferometer; for mass density: Vibrating tube method
[3] = refractive index (Na D-line) (dimensionless); xn = mol fraction of the nth substance listed; settings: 101 kPa, Liquid, Standard Abbe refractometry, x2 = 0
[4] = xn = mol fraction of the nth substance listed; settings: 101 kPa, Liquid, x2 = 0; for viscosity: Falling or rolling sphere viscometry; for speed of sound: Sing-around technique in a fixed-path interferometer; for mass density: Vibrating tube method

CCCCn1cc[n+](C)c1.F[B-](F)(F)F [1-butyl-3-methylimidazolium tetrafluoroborate]
Settings | mass density, [2] [kg/m3] | refractive index, [1] | speed of sound, [2] [m/s] | viscosity, [2] [mPa·s]
278.15 K | 1215.9 | – | 1615 | 361
288.15 K | 1208.5 | 1.4243 | 1590 | 186
298.15 K | 1201.3 | 1.4217 | 1565 | 105
308.15 K | 1194.2 | 1.419 | 1542 | 64.8
318.15 K | 1187.2 | 1.4164 | 1519 | 42.7

CCn1cc[n+](C)c1.F[B-](F)(F)F [1-ethyl-3-methylimidazolium tetrafluoroborate]
Settings | mass density, [2] [kg/m3] | refractive index, [1] | speed of sound, [2] [m/s] | viscosity, [2] [mPa·s]
278.15 K | 1305.3 | – | 1677 | 101
288.15 K | 1297.6 | 1.4143 | 1653 | 62
298.15 K | 1290 | 1.4118 | 1629 | 41
308.15 K | 1282.4 | 1.4092 | 1606 | 28.8
318.15 K | 1274.9 | 1.4067 | 1583 | 21.2

CO [methanol]
Settings | mass density, [2] [kg/m3] | refractive index, [1] | speed of sound, [2] [m/s] | viscosity, [2] [mPa·s]
278.15 K | 805.4 | – | 1169 | 0.687
288.15 K | 796 | 1.3316 | 1135 | 0.596
298.15 K | 786.6 | 1.3265 | 1102 | 0.524
308.15 K | 777.1 | 1.3224 | 1070 | 0.466
318.15 K | 767.6 | 1.3182 | 1037 | 0.42

CO [methanol] + CCCCn1cc[n+](C)c1.F[B-](F)(F)F
Settings | mass density, [4] [kg/m3] | refractive index, [3] | speed of sound, [4] [m/s] | viscosity, [4] [mPa·s]
278.15 K | 805.4 | – | 1169 | 0.687
288.15 K | 796 | 1.3316 | 1135 | 0.596
298.15 K | 786.6 | 1.3265 | 1102 | 0.524
308.15 K | 777.1 | 1.3224 | 1070 | 0.466
318.15 K | 767.6 | 1.3182 | 1037 | 0.42

CO [methanol] + CCn1cc[n+](C)c1.F[B-](F)(F)F
Settings | mass density, [4] [kg/m3] | refractive index, [3] | speed of sound, [4] [m/s] | viscosity, [4] [mPa·s]
278.15 K | 805.4 | – | 1169 | 0.687
288.15 K | 796 | 1.3316 | 1135 | 0.596
298.15 K | 786.6 | 1.3265 | 1102 | 0.524
308.15 K | 777.1 | 1.3224 | 1069 | 0.466
318.15 K | 767.6 | 1.3182 | 1037 | 0.42
